IC50 data for 15 compounds are collected here from patent publication US20190343828A1, “CAMPTOTHECIN PEPTIDE CONJUGATES” (SEATTLE GENETICS, INC., priority 2018, published 2019).

Assay [1] concerns B-lymphocyte cancer cells (SU-DHL-4). The assay is described as follows: In vitro cytotoxicity, CellTiter-Glo 96 h, SU-DHL-4. Conditions: Homo sapiens, SU-DHL-4, read-out: Cytotoxic potency as free drug, IC50, SU-DHL-4. (In general: In ATP-based viability assays light output follows the ATP content of the culture.)
Procedure: (§1) In vitro potency was assessed on multiple cancer cell lines. All cell lines were authenticated by STR profiling at IDEXX Bioresearch and cultured for no more than 2 months after resuscitation. Cells cultured in log-phase growth were seeded for 24 hours in 96-well plates containing 150 μl RPMI 1640 supplemented with 20% FBS. Serial dilutions of antibody-drug conjugates in cell culture media were prepared at 4× working concentrations, and 50 μl of each dilution was added to the 96-well plates. Following addition of test articles, cells were incubated with test articles for 4 days at 37° C. After 96 hours, growth inhibition was assessed by CellTiter-Glo® (Promega, Madison, Wis.) and luminescence was measured on a plate reader.
(§2) Cell viability was determined by CellTiter-Glo staining after 96 h exposure to ADC. […] Ag1 is an antibody targeting a ubiquitous and readily internalizable antigen on cancer cells, Ag2 is cAC10 antibody targeting CD30(+) cancer cells, Ag3 is h1F6 antibody targeting CD70(+) cancer cells, Ag4 is hMEM102 antibody targeting CD48(+) cancer cells, Ag5 is h20F3 antibody targeting NTB-A expressing cancer cells, and h00 is a non-binding control antibody.
Assay [2] deals with melanoma cells (SK-MEL-5). In words: In vitro cytotoxicity, CellTiter-Glo 96 h, SK-MEL-5. As to conditions: Homo sapiens, SK-MEL-5, read-out: Cytotoxic potency as free drug, IC50, SK-MEL-5.
Procedure: as §1, §2
The test system of assay [3] is acute myeloid leukemia cells (MOLM13). In words: In vitro cytotoxicity, CellTiter-Glo 96 h, MOLM13. Conditions: Homo sapiens, MOLM-13, read-out: Cytotoxic potency as free drug, IC50, MOLM13.
The subject of assay [4] is multiple drug resistant acute promyelocytic leukemia cells (HL-60/RV). In words: In vitro cytotoxicity, CellTiter-Glo 96 h, HL60/RV. As to conditions: Homo sapiens, HL-60, read-out: Cytotoxic potency (IC50 class), HL60/RV.
Procedure: as §1
(§3) Cell viability was determined by CellTiter-Glo staining after 96 h exposure to ADC.
Assay [5] relates to acute promyelocytic leukemia cells (HL-60). The assay is described as follows: In vitro cytotoxicity, CellTiter-Glo 96 h, HL-60. Conditions: Homo sapiens, HL-60, read-out: Cytotoxic potency (IC50 class), HL-60.
Procedure: as §1, §2
Assay [6] relates to B-lymphocyte cancer cells (U266). The assay is described as follows: In vitro cytotoxicity, CellTiter-Glo 96 h, U266. Conditions: Homo sapiens, U-266, read-out: Cytotoxic potency as free drug, IC50, U266.
Assay [7] concerns renal carcinoma cells (786-O). The assay is described as follows: In vitro cytotoxicity, CellTiter-Glo 96 h, 786-O. Conditions: Homo sapiens, 786-0, read-out: Cytotoxic potency (IC50 class), 786-O.
Procedure: as §1, §3
Assay [8] relates to multiple myeloma cells (MM.1R). The assay is described as follows: In vitro cytotoxicity, CellTiter-Glo 96 h, MM.1R. Conditions: read-out: Cytotoxic potency (IC50 class), MM.1R.
Procedure: as §1, §2
Assay [9] concerns pancreatic cancer cells (BxPC3). In words: In vitro cytotoxicity, CellTiter-Glo 96 h, BxPC3. As to conditions: Homo sapiens, BXPC-3, read-out: Cytotoxic potency (IC50 class), BxPC3.
For assay [10], the system named is Burkitt's lymphoma cells (Ramos). The assay is described as follows: In vitro cytotoxicity, CellTiter-Glo 96 h, Ramos. As to conditions: Homo sapiens, read-out: Cytotoxic potency as free drug, IC50, Ramos.
The test system of assay [11] is Hodgkin's lymphoma cells (L540cy). The assay is described as follows: In vitro cytotoxicity, CellTiter-Glo 96 h, L540cy. As to conditions: read-out: Cytotoxic potency (IC50 class), L540cy.

Turning to `CC[C@@]1(O)C(=O)OCc2c1cc1n(c2=O)Cc2c-1nc1cc3c(cc1c2CNCc1ccc(N)cc1)OCO3` [Compound 5e], the IC50 in assay [1] was 1 to 10 nM; in assay [2], 10 to 100 nM; in assay [3], 1 to 10 nM; in [4], 100 to 1000 nM; in assay [5], 10 to 100 nM; in assay [6] it was 10 to 100 nM. The IC50 in assay [7] was in the range of 10 to 100 nM; in [8], 1 to 10 nM; in assay [9], 10 to 100 nM; in assay [10], 1 to 10 nM; in assay [11], 1 to 10 nM.

On to `CC[C@@]1(O)C(=O)OCc2c1cc1n(c2=O)Cc2c-1nc1cc3c(cc1c2-c1ccccc1)OCO3` [Compound 6d], for which the IC50 in [1] fell in the range of 0.1 to 1 nM; in assay [2], 1 to 10 nM; in assay [3] it was 1 to 10 nM; in assay [4] it was 1 to 10 nM; in [5], 1 to 10 nM; in assay [6] it was 1 to 10 nM. The IC50 was in the range of 1 to 10 nM in assay [7]; 1 to 10 nM in assay [8]; 1 to 10 nM in assay [9]; 0.1 to 1 nM in assay [10]; 1 to 10 nM in assay [11].

`CC[C@@]1(O)C(=O)OCc2c1cc1n(c2=O)Cc2c-1nc1cc3c(cc1c2CNC(C)C)OCO3` [Compound 5c]: the IC50 in assay [1], in assay [2], in [3], in assay [4], in [5] and in assay [6] was 1 to 10 nM throughout. Further, the IC50 is 1 to 10 nM in assay [7]; 1 to 10 nM in assay [8]; 1 to 10 nM in [9]; 0.1 to 1 nM in [10]; 1 to 10 nM in assay [11].

For `CC[C@@]1(O)C(=O)OCc2c1cc1n(c2=O)Cc2c-1nc1cc3c(cc1c2CO)OCO3` [Compound 8c], the IC50 in assay [1] lay within 0.1 to 1 nM; in assay [2], 1 to 10 nM; in assay [3], 1 to 10 nM; in assay [4] it was 1 to 10 nM; in [5], 10 to 100 nM; in assay [6] it was 1 to 10 nM. Also, the IC50 in [7] lay in the range of 1 to 10 nM; in assay [8], 1 to 10 nM; in [9], 1 to 10 nM; in assay [10], 0.1 to 1 nM; in assay [11], 0.1 to 1 nM.

As for `CCc1c2c(nc3ccc(O)cc13)-c1cc3c(c(=O)n1C2)COC(=O)[C@]3(O)CC` [Compound 8d], the IC50 in assay [1] lay in the range of 1 to 10 nM; in assay [2], 1 to 10 nM; in assay [3] it was 1 to 10 nM; in assay [4], 10 to 100 nM; in [5], 1 to 10 nM; in assay [6], 1 to 10 nM. For the same compound, the IC50 in assay [7] lay in the range of 1 to 10 nM; in [8], 1 to 10 nM; in [9], 1 to 10 nM; in assay [10], 10 to 100 nM; in assay [11], 10 to 100 nM.

Take `CCCc1c2c(nc3cc4c(cc13)OCO4)-c1cc3c(c(=O)n1C2)COC(=O)[C@]3(O)CC` [Compound 6a]: the IC50 lay in the range of 0.1 to 1 nM in assay [1]; 1 to 10 nM in [2]; 1 to 10 nM in assay [3]; 1 to 10 nM in assay [4]; 1 to 10 nM in [5]; 1 to 10 nM in assay [6]. Moreover, the IC50 lay within 1 to 10 nM in assay [7]; 1 to 10 nM in assay [8]; 1 to 10 nM in assay [9]; 0.1 to 1 nM in [10]; 0.1 to 1 nM in [11].

With `CC[C@@]1(O)C(=O)OCc2c1cc1n(c2=O)Cc2c-1nc1cc3c(cc1c2CNC(=O)CO)OCO3` [Compound 4a], the IC50 in assay [1] fell in the range of 10 to 100 nM; in assay [2], 1 to 10 nM; in assay [3], 1 to 10 nM; in assay [4], 10 to 100 nM; in [5], 10 to 100 nM; in assay [6] it was 1 to 10 nM. Further, the IC50 in assay [7] fell in the range of 10 to 100 nM; in assay [8], 1 to 10 nM; in [9] it was 10 to 100 nM; in assay [10], 10 to 100 nM; in assay [11], 10 to 100 nM.

Consider `CCNCc1c2c(nc3cc4c(cc13)OCO4)-c1cc3c(c(=O)n1C2)COC(=O)[C@]3(O)CC` [Compound 5a], for which the IC50 was in the range of 1 to 10 nM in assay [1]; 1 to 10 nM in [2]; 1 to 10 nM in [3]; 1 to 10 nM in assay [4]; 10 to 100 nM in assay [5]; 1 to 10 nM in assay [6]. The IC50 in assay [7], in assay [8], in [9], in assay [10] and in assay [11] was 1 to 10 nM in each case.

On to `CC[C@@]1(O)C(=O)OCc2c1cc1n(c2=O)Cc2c-1nc1cc3c(cc1c2CNCCCCO)OCO3` [Compound 5f], for which the IC50 lay in the range of 1 to 10 nM in assay [1]; 1 to 10 nM in assay [2]; 1 to 10 nM in [3]; 100 to 1000 nM in assay [4]; 10 to 100 nM in [5]; 1 to 10 nM in assay [6]. For the same compound, the IC50 in [7] was in the range of 1 to 10 nM; in assay [8], 1 to 10 nM; in assay [9] it was 10 to 100 nM; in [10], 1 to 10 nM; in [11] it was 1 to 10 nM.

For the compound `CC[C@@]1(O)C(=O)OCc2c1cc1n(c2=O)Cc2c-1nc1cc3c(cc1c2C1CC1)OCO3` [Compound 6m], the IC50 in assay [1] fell in the range of 0.1 to 1 nM; in assay [2], 1 to 10 nM; in [3], 1 to 10 nM; in [4], 1 to 10 nM; in assay [5] it was 10 to 100 nM; in [6], 1 to 10 nM. The IC50 was in the range of 0.1 to 1 nM in assay [7]; 0.1 to 1 nM in assay [8]; 1 to 10 nM in assay [9]; 0.1 to 1 nM in [10]; 0.1 to 1 nM in [11].

For `CC[C@@]1(O)C(=O)OCc2c1cc1n(c2=O)Cc2c-1nc1cc3c(cc1c2CN(C)CCN(C)C)OCO3` [Compound 5t], the IC50 in assay [1] lay within 1 to 10 nM; in [2] it was 10 to 100 nM; in assay [3], 10 to 100 nM; in [4] it was 10 to 100 nM; in assay [5] it was 100 to 1000 nM; in [6] it was 10 to 100 nM. The IC50 in assay [7] lay in the range of 1 to 10 nM; in assay [8], 1 to 10 nM; in [9], 10 to 100 nM; in [10], 1 to 10 nM; in [11], 1 to 10 nM.

Consider `CC[C@@]1(O)C(=O)OCc2c1cc1n(c2=O)Cc2c-1nc1cc3c(cc1c2C(C)(C)C)OCO3` [Compound 6l], for which the IC50 in assay [1], in [2], in assay [3], in [4], in [5] and in assay [6] was 1 to 10 nM in each case. Further, the IC50 in [7] lay in the range of 1 to 10 nM; in assay [8], 1 to 10 nM; in assay [9], 1 to 10 nM; in assay [10], 0.1 to 1 nM; in assay [11], 1 to 10 nM.

In the case of `CC[C@@]1(O)C(=O)OCc2c1cc1n(c2=O)Cc2c-1nc1cc3c(cc1c2CNCc1ccccc1)OCO3` [Compound 5j], the IC50 was in the range of 1 to 10 nM in assay [1]; 1 to 10 nM in assay [2]; 1 to 10 nM in assay [3]; 1 to 10 nM in assay [4]; 10 to 100 nM in assay [5]; 1 to 10 nM in assay [6]. The IC50 in assay [7], in assay [8], in assay [9], in assay [10] and in assay [11] was 1 to 10 nM in each case.

`CC[C@@]1(O)C(=O)OCc2c1cc1n(c2=O)Cc2c-1nc1cc3c(cc1c2C1CCCCCC1)OCO3` [Compound 6j]: the IC50 in [1] fell in the range of 1 to 10 nM; in assay [2], 1 to 10 nM; in assay [3], 1 to 10 nM; in assay [4], 1 to 10 nM; in [5], 10 to 100 nM; in assay [6], 1 to 10 nM. For the same compound, the IC50 in assay [7] was 1 to 10 nM; in [8], 1 to 10 nM; in [9], 1 to 10 nM; in [10], 0.1 to 1 nM; in assay [11], 1 to 10 nM.

With `CC[C@@]1(O)C(=O)OCc2c1cc1n(c2=O)Cc2c-1nc1cc3c(cc1c2CNCCN(C)CCO)OCO3` [Compound 5w], the IC50 in assay [1] was in the range of 10 to 100 nM; in assay [2], 10 to 100 nM; in assay [3] it was 10 to 100 nM; in assay [4], 10 to 100 nM; in [5], 100 to 1000 nM; in [6], 10 to 100 nM. Besides, the IC50 lay in the range of 10 to 100 nM in [7]; 10 to 100 nM in assay [8]; 10 to 100 nM in assay [9]; 1 to 10 nM in [10]; 10 to 100 nM in assay [11].
